Experimental data taken from patent publication US20220226268A1, “COMPOSITIONS AND METHODS FOR TREATING CENTRAL NERVOUS SYSTEM DISORDERS” (PaxMedica, Inc., priority 2019, published 2022).

Experiments:
[1] = Determination of suramin in plasma and brain tissue of mice after IP or IN administration; assay type: in vivo, male Fmr1-knockout B6.129P2-Fmr1tm1Cgr/J TG mice; settings: male, Fmr1-knockout B6.129P2-Fmr1tm1Cgr/J, mouse, Group 1: IP injection 20 mg/kg weekly for four weeks, read-out: Average Brain Tissue to Plasma Partitioning Ratio
Protocol: For the study, male Fmr1-knockout B6.129P2-Fmr1tm1Cgr/J TG mice were purchased from Jackson Laboratories, Bar Harbor, Me. These mice were of approximately 8 weeks of age.
Mice were accommodated to the research facility for approximately a week. Body weights of all mice were recorded for health monitoring purposes.
Blood samples were collected from all mice at the end of 12 weeks of age. Brain tissue was harvested from all mice upon sacrifice 13-14 weeks of age. Standard sample preparation and analytical techniques were used to obtain the data.
The data is presented as the average plasma concentration (in both ng/ml and μM) for each animal group the and average brain tissue concentration (in both ng/g and mmol/g). Also presented is the average brain tissue to plasma partition ratio for each group.

[2] = in vivo, cited from earlier work

For `Cc1ccc(C(=O)Nc2ccc(S(=O)(=O)O)c3cc(S(=O)(=O)O)cc(S(=O)(=O)O)c23)cc1NC(=O)c1cccc(NC(=O)Nc2cccc(C(=O)Nc3cc(C(=O)Nc4ccc(S(=O)(=O)O)c5cc(S(=O)(=O)O)cc(S(=O)(=O)O)c45)ccc3C)c2)c1` [suramin], the Kp [1] is given as 0.03, the oral bioavailability ([2]; po) is given as “not orally bioavailable” and the half-life [2] is given as 41 to 78 days.
